The data set in a line: in vitro. As to conditions: human, hela cells.

The term viability denotes a read-out of living cells in per cent, often relative to untreated cells.

For `COc1ccc(OC)c(C(C)NC(=O)C2CCN(CCc3c[nH]c4ccccc34)CC2)c1` (stereo not shown) [CBK148763], the viability at 28.5 h, 10 µM (% viability) is 99.2%. Same read-out and setting: the figure for `Cc1nnnn1-c1ccc(CC(=O)N2CCc3sccc3C2c2ccccc2)cc1` (stereo not shown) [CBK285567] is 103%. Still for that read-out and setting: the figure for `O=C(/C=C/c1cccc2ccccc12)N1CCCCCC1` [CBK264092] is 111%; for `Cc1cccn2cc(CC(=O)NCCNC(=O)OC(C)(C)C)nc12` [CBK306122] it is 100%; for `C(=C\c1nccnc1OC(c1ccccc1)c1ccccc1)/c1ccccc1` [CBK106878] it is 99.1%.

Regarding `COc1cc(/C=C/CN2CCC(C(=O)NC(C)c3ccc(F)cc3)CC2)ccc1OC(C)=O` (stereo not shown) [CBK148061], the viability at 28.5 h, 10 µM (% viability) worked out at 90.1%. Regarding `CS(=O)(=O)c1ccc(-c2ccc3c(c2)OCCN(C2CCN(C(=O)Oc4ccccc4)CC2)C3)cc1` [CBK169259], the viability at 28.5 h, 10 µM amounted to 79.9%. For `O=C1CC(c2ccccc2)c2snc(C(=O)O)c2N1` (stereo not shown) [CBK287111], where the note is “% viability”, the viability at 28.5 h, 10 µM worked out at 90.5%. Still for that read-out and setting: with `Cc1ccccc1OCC(=O)N1CC(=O)Nc2ccccc21` [CBK300535] the figure was 94%; with `O=C(Nc1cccc(N2CCNCC2)c1)c1coc2c1C(=O)CCC2` [CBK034113T], 87.2%; with `c1cncc(-c2noc(-c3cc(C4CC4)[nH]n3)n2)c1` [CBK287973], 94.7%. Still for that read-out and setting: with `O=C(COc1ccccc1)Nc1ccc(N2CCOCC2)c2nonc12` [CBK268149] the figure was 87.9%.

As for `COc1ccc(-c2n[nH]c(N)n2)cc1` [CBK028843], the viability at 28.5 h, 10 µM (% viability) amounted to 116%.

Regarding `N[C@H]1C[C@H](c2nnc(Cn3ncc(N4CCCC4)cc3=O)n2C2CC2)C1` [CBK307039], the viability at 28.5 h, 10 µM (% viability) is 107%. Same read-out and setting: with `CCc1nccn1CCCNC(=O)Nc1cccnc1` [CBK306736] the figure was 94.6%; with `Cc1ccc2[nH]c(-c3cncn3C(C)CN3CCOCC3)c(C)c2c1` (stereo not shown) [CBK281794], 103%; with `CN1CCN(NC(=O)c2cc(C(=O)c3ccc(Cl)cc3Cl)c[nH]2)CC1` [CBK107420], 91.4%. Consider `CC(C)(C)OC(=O)Nc1ccc(Oc2ncc(C(F)(F)F)cc2Cl)cc1` [CBK161658], for which, where the note is “% viability”, the viability at 28.5 h, 10 µM is 99.2%. On the same count and under the same terms, the figure for `CC(=O)N(C)c1nc(-c2cccc(N(C)C)c2)ccc1C(=O)NC1CCS(=O)(=O)C1` (stereo not shown) [CBK076590] is 103%; for `Cc1cccc(OCC2CCCN(C(=O)CCc3nncn3C)C2)c1` (stereo not shown) [CBK306640] it is 88.8%. As for `CCn1cc(CC(=O)Nc2cccc(-n3cnnc3)c2)c2ccccc21` [CBK282669], for the setting “% viability”, the viability at 28.5 h, 10 µM stood at 66.4%. Still for that read-out and setting: with `Cc1ccc(C(=O)C2=C(O)C(=O)N(CCN(C)C)C2c2ccccn2)o1` (stereo not shown) [CBK266536] the figure was 119%; with `O=C1c2ccc(Oc3cccc(Oc4ccc5c(c4)C(=O)N(c4ccccn4)C5=O)c3)cc2C(=O)N1c1ccccn1` [CBK261397], 89.8%.

As to `CC(=O)C1=C(C)NC(SCC(=O)c2ccc(C)cc2)=C(C#N)C1c1ccco1` (stereo not shown) [CBK262623], the viability at 28.5 h, 10 µM (% viability) is 109%. Still for that read-out and setting: with `COc1cc(C)ccc1S(=O)(=O)Nc1cccc2cc[nH]c12` [CBK159511] the figure was 81.8%; with `C[C@H](c1ccccc1)n1c(=O)[nH]c2ncc(-c3ccc(C(N)=O)cc3)nc21` [CBK064377], 111%; with `O=C(CCN1CCn2nc(C(O)C3CC3)cc2C1)NCc1cccs1` (stereo not shown) [CBK306603], 93.1%. On the same count and under the same terms, the figure for `CN(C)CCOc1ccc2c(c1)OC1(CCN(C(=O)c3ccc4sc(N)nc4c3)CC1)CC2=O` [CBK169380] is 91.4%; for `CCN(CC)C(=O)c1sc2ncccc2c1NS(=O)(=O)Cc1ccccc1[N+](=O)[O-]` [CBK050022] it is 92.1%; for `N#CCCCN1C(=O)C(O)(CC(=O)c2ccccn2)c2ccccc21` (stereo not shown) [CBK307373] it is 121%. Still for that read-out and setting: with `COc1ccc(OCCCN)c(C(=O)N2CCc3nc[nH]c(=O)c3C2)c1` [CBK307361] the figure was 97.2%.

The record behind these values is article PMC12040169 (PLOS Biology, 2025).
